Test results reported in US9884048B2, “ERK inhibitors” (Merck Sharp & Dohme Corp., priority 2014, dated 2018).

biological target: phosphorylated active hERK2 enzyme (Homo sapiens (Human), UniProt P28482); details: read-out: ERK2 IC50; IMAP-FP assay; 0.5 nM hERK2, 30 μM ATP; 10 point titration, 3 μM starting concentration
Sequence (P28482 whole entry): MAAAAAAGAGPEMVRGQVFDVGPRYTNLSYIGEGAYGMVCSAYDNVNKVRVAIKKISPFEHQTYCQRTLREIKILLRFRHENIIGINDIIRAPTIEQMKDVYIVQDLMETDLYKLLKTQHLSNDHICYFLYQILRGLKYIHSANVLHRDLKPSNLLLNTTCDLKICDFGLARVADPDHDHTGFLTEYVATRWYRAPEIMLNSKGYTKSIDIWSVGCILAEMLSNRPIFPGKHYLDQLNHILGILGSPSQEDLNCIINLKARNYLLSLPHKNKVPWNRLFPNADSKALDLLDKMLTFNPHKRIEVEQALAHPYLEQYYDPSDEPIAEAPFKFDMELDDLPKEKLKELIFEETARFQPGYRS

In order of falling IC50:
1. C[C@@H](NC(=O)Nc1cc2cnn(-c3ccc(F)cc3)c2c(CN2CCOCC2)n1)c1ccccc1 [Example 242, 1-[1-(4-fluorophenyl)-7-(morpholin-4-ylmethyl)-1H-pyrazolo[3,4-c]pyridin-5-yl]-3-[(1R)-1-phenylethyl]urea]  2240 nM
2. COC[C@@H](NC(=O)Nc1cc2cnn(C3CCNC(C)C3)c2cn1)c1ccccc1 (stereo partly drawn) [Example 239, 1-[(1S)-2-methoxy-1-phenylethyl]-3-[1-(2-methylpiperidin-4-yl)-1H-pyrazolo[3,4-c]pyridin-5-yl]urea]  2180 nM
3. CC(C)(C)OC(=O)N1CCc2cnc(-n3ncc4cc(NC(=O)N[C@@H](c5ccc(F)cc5)C(C)(C)O)ncc43)nc2C1 [Example 234, tert-butyl 2-[5-({[(1S)-1-(4-fluorophenyl)-2-hydroxy-2-methylpropyl]carbamoyl}amino)-1H-pyrazolo[3,4-c]pyridin-1-yl]-5,8-dihydropyrido[3,4-d]pyrimidine-7(6H)-carboxylate]  1810 nM
4. C[C@H](NC(=O)Nc1cc2cnn(-c3ccc(F)cc3)c2cn1)c1ccccn1 [Example 221, 1-[1-(4-fluorophenyl)-1H-pyrazolo[3,4-c]pyridin-5-yl]-3-[(1S)-1-pyridin-2-ylethyl]urea]  1790 nM
5. C[C@@H](NC(=O)Nc1cc2cnn(-c3ccc(F)cc3)c2c(CN(C)C)n1)c1ccccc1 [Example 243, 1-{7-[(dimethylamino)methyl]-1-(4-fluorophenyl)-1H-pyrazolo[3,4-c]pyridin-5-yl}-3-[(1R)-1-phenylethyl]urea]  1580 nM
6. COCCCn1ncc2cc(NC(=O)N[C@H](C)c3ccccc3)ncc21 [Example 235, 1-[1-(3-methoxypropyl)-1H-pyrazolo[3,4-c]pyridin-5-yl]-3-[(1R)-1-phenylethyl]urea]  1520 nM
7. C[C@@H](NC(=O)Nc1cc2cnn(C3CCNC(=O)C3)c2cn1)c1ccc(F)cc1 (stereo partly drawn) [Example 233, 1-[(1R)-1-(4-fluorophenyl)ethyl]-3-[1-(2-oxopiperidin-4-yl)-1H-pyrazolo[3,4-c]pyridin-5-yl]urea]  1220 nM
8. C[C@@H](NC(=O)Nc1cc2cnn(C)c2cn1)c1ccccc1 [Example 225, (R)-1-(1-methyl-1H-pyrazolo[3,4-c]pyridin-5-yl)-3-(1-phenylethyl)urea]  920 nM
9. COC[C@@H](NC(=O)Nc1cc2cnn(C)c2cn1)c1ccccc1 [Example 237, 1-[(1S)-2-methoxy-1-phenylethyl]-3-(1-methyl-1H-pyrazolo[3,4-c]pyridin-5-yl)urea]  882 nM
10. Cc1cc(-n2ncc3cc(NC(=O)N[C@H](C)c4ccccc4)nc(CN4CCOCC4)c32)ccn1 [Example 245, 1-[1-(2-methylpyridin-4-yl)-7-(morpholin-4-ylmethyl)-1H-pyrazolo[3,4-c]pyridin-5-yl]-3-[(1R)-1-phenylethyl]urea]  832 nM
11. C[C@@H](NC(=O)Nc1cc2cnn(C)c2cn1)c1ccc(F)cc1 [Example 232, 1-[(1R)-1-(4-fluorophenyl)ethyl]-3-(1-methyl-1H-pyrazolo[3,4-c]pyridin-5-yl)urea]  579 nM
12. Cn1ncc2cc(NC(=O)NC3CCCN(Cc4c(F)cccc4F)C3)ncc21 (stereo not drawn) [Example 236, 1-[1-(2,6-difluorobenzyl)piperidin-3-yl]-3-(1-methyl-1H-pyrazolo[3,4-c]pyridin-5-yl)urea]  531 nM
13. C[C@@H](NC(=O)Nc1cc2cnn(-c3ccc(F)cc3)c2c(COCCN2CCOCC2)n1)c1ccccc1 [Example 244, 1-{1-(4-fluorophenyl)-7-[(2-morpholin-4-ylethoxy)methyl]-1H-pyrazolo[3,4-c]pyridin-5-y1}-3-[(1R)-1-phenylethyl]urea]  188 nM
14. C[C@@H](NC(=O)Nc1cc2cnn(C3CCOCC3)c2cn1)c1ccccc1 [Example 238, 1-[(1R)-1-phenylethyl]-3-[1-(tetrahydro-2H-pyran-4-yl)-1H-pyrazolo[3,4-c]pyridin-5-yl]urea]  147 nM
15. C[C@@H](O)[C@@H](NC(=O)Nc1cc2cn[nH]c2cn1)c1ccccc1 [Example 227, 1-((1S,2R)-2-Hydroxy-1-phenylpropyl)-3-(1H-pyrazolo[3,4-c]pyridin-5-yl)urea]  134 nM
16. CC(C)(O)[C@@H](NC(=O)Nc1cc2cn[nH]c2cn1)c1ccccc1 [Example 230, (S)-1-(2-hydroxy-2-methyl-1-phenylpropyl)-3-(1H-pyrazolo[3,4-c]pyridin-5-yl)urea]  70 nM
17. Cn1ncc2cc(NC(=O)N[C@@H](c3ccccc3)C(C)(C)O)nc(CO)c21 [Example 226, 1-[7-(hydroxymethyl)-1-methyl-1H-pyrazolo[3,4-c]pyridin-5-yl]-3-[(1S)-2-hydroxy-2-methyl-1-phenylpropyl]urea]  69.3 nM
18. CCNC(=O)n1ncc2cc(NC(=O)N[C@H](C)c3ccccc3)ncc21 [Example 231, N-ethyl-5-({[(1R)-1-phenylethyl]carbamoyl}amino)-1H-pyrazolo[3,4-c]pyridine-1-carboxamide]  64.1 nM
19. COCc1nc(NC(=O)N[C@H](C)c2ccccc2)cc2cnn(-c3ccc(F)cc3)c12 [Example 241, 1-[1-(4-fluorophenyl)-7-(methoxymethyl)-1H-pyrazolo[3,4-c]pyridin-5-yl]-3-[(1R)-1-phenylethyl]urea]  55.9 nM
20. C[C@@H](NC(=O)Nc1cc2cnn(-c3ccc(F)cc3)c2c(COCCO)n1)c1ccccc1 [Example 246, 1-{1-(4-fluorophenyl)-7-[(2-hydroxyethoxy)methyl]-1H-pyrazolo[3,4-c]pyridin-5-yl}-3-[(1R)-1-phenylethyl]urea]  52.2 nM
21. C[C@@H](NC(=O)Nc1cc2cn[nH]c2c(CO)n1)c1ccccc1 [Example 229, (R)-1-(7-(hydroxymethyl)-1H-pyrazolo[3,4-c]pyridin-5-yl)-3-(1-phenylethyl)urea]  41 nM
22. C[C@@H](NC(=O)Nc1cc2cnn(-c3ccc(F)cc3)c2c(CO)n1)c1ccccc1 [Example 240, 1-[1-(4-fluorophenyl)-7-(hydroxymethyl)-1H-pyrazolo[3,4-c]pyridin-5-yl]-3-[(1R)-1-phenylethyl]urea]  40.1 nM
23. Cn1ncc2cc(NC(=O)N[C@@H](c3ccccc3)C(C)(C)O)ncc21 [Example 228, 1-[(1S)-2-hydroxy-2-methyl-1-phenylpropyl]-3-(1-methyl-1H-pyrazolo[3,4-c]pyridin-5-yl)urea]  36.9 nM
24. Cc1cc(-n2ncc3c(F)c(NC(=O)N[C@H](C)c4ccccc4)ncc32)ccn1 [Example 224, (R)-1-(4-Fluoro-1-(2-methylpyridin-4-yl)-1H-pyrazolo[3,4-c]pyridin-5-yl)-3-(1-phenylethyl)urea]  8.26 nM
25. C[C@@H](NC(=O)Nc1cc2cnn(-c3ccc(F)cc3)c2cn1)c1ccccn1 [Example 222, 1-[1-(4-fluorophenyl)-1H-pyrazolo[3,4-c]pyridin-5-yl]-3-[(1R)-1-pyridin-2-ylethyl]urea]  7.53 nM
26. Cc1cc(-n2ncc3cc(NC(=O)N[C@H](C)c4ccc(Cl)c(Cl)c4)ncc32)ccn1 [Example 220, 1-[(1R)-1-(3,4-dichlorophenyl)ethyl]-3-[1-(2-methylpyridin-4-yl)-1H-pyrazolo[3,4-c]pyridin-5-yl]urea]  3.33 nM
27. Cc1cc(-n2ncc3cc(NC(=O)N[C@H](C)c4ccc(F)cc4)ncc32)ccn1 [Example 223, (R)-1-(1-(4-fluorophenyl)ethyl)-3-(1-(2-methylpyridin-4-yl)-1H-pyrazolo[3,4-c]pyridin-5-yl)urea]  2.28 nM
